The target of the assay is T1, Recombinant human Met (c-Met) (Homo sapiens, UniProt P08581).
T1 construct: purchased Invitrogen PV3143
Briefly: Inhibition of c-Met kinase activity using Transcreener FP assay. The settings on record: Poly E4Y substrate, 28° C. 45 min, read-out: IC50, inhibition of c-Met kinase activity. It is filed as biochemical.

SMILES strings stand for the structures.

T1 sequence (P08581 956-1390 limits assumed): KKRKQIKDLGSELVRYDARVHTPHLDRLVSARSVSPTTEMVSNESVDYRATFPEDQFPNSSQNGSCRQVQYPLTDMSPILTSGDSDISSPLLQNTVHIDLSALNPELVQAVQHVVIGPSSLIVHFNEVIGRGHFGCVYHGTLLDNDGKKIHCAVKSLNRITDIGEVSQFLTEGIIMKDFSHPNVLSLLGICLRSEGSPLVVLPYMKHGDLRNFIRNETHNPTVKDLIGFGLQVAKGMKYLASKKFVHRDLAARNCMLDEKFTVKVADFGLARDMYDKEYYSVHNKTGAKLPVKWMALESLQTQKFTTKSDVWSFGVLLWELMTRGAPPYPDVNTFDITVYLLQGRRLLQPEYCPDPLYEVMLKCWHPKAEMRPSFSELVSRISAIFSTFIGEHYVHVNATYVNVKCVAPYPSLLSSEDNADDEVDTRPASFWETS

On to `Cn1cc(-c2cnc3nnn(Cc4ccc5ncsc5n4)c3n2)cn1` [Compound 289], for which the IC50 is 100 to 1000 nM.
For `c1cn2cc(Cn3nnc4ncc(-c5cnn(C6CNC6)c5)nc43)ccc2n1` [Compound 290], the half-inhibitory concentration (IC50) was in the range of 1 to 100 nM.
`COCCOc1cc(Nc2cnc3nnn(Cc4ccc5ncccc5c4)c3n2)ccn1` [Compound 186]: the IC50 is 1 to 100 nM.
With `OCC1CCN(c2ccc3nnn(Cc4ccc5ncccc5c4)c3n2)CC1` [Compound 245] the figure was 1 to 100 nM; with `Cn1cc(-c2ccc3nnn(Cc4ccc5ncccc5c4F)c3n2)cn1` [Compound 129], 1 to 100 nM; with `Cc1csc(Nc2cnc3nnn(Cc4ccc5ncccc5c4)c3n2)n1` [Compound 172], 1 to 100 nM.
As for `COc1cccc(-c2ccc3nnn(Cc4ccc5ncccc5c4)c3n2)c1` [Compound 88], the IC50 fell in the range of 1 to 100 nM.
As to `Cc1ccnc(Nc2cnc3nnn(Cc4ccc5ncccc5c4)c3n2)c1` [Compound 196], the IC50 lay within 1 to 100 nM.
Regarding `FC(F)(F)Cn1cc(-c2ccc3nnn(Cc4ccc5ncnn5c4)c3n2)cn1` [Compound 121], the IC50 was in the range of 100 to 1000 nM.
Turning to `c1cnc2ccc(Cn3nnc4ncc(Nc5ccncc5)nc43)cc2c1` [Compound 169], the IC50 was in the range of 1 to 100 nM.
Take `COc1ccc(-c2cnc3nnn(Cc4ccc5ncnn5c4)c3n2)cc1` [Compound 59]: the IC50 lay within 1 to 100 nM.
`Cc1cnc2ccc(Cn3nnc4ncc(-c5cnn(CCO)c5)nc43)cn12` [Compound 305]: the IC50 was in the range of 1 to 100 nM.
The value for `CC1N=CC(c2cnc3nnn(Cc4cc5cccnc5s4)c3n2)=N1` (stereo not shown) [Compound 2] was 100 to 1000 nM; that for `CCn1cc(-c2cnc3nnn(Cc4cc5c(cnn5CC)s4)c3n2)cn1` [Compound 37] was 100 to 1000 nM.
Consider `c1c[nH]c(-c2ccc3nnn(Cc4ccc5ncccc5c4)c3n2)c1` [Compound 64], for which the IC50 lay in the range of 100 to 1000 nM.
Consider `c1cnc2ccc(Cn3nnc4ccc(-c5cc[nH]n5)nc43)cc2c1` [Compound 81], for which the IC50 was 1 to 100 nM.
The value for `O[C@@H]1CCC[C@H]1Nc1ccnc(Nc2cnc3nnn(Cc4ccc5ncccc5c4)c3n2)c1` [Compound 206] was 100 to 1000 nM.
Consider `CN(c1ccncc1)c1cnc2nnn(Cc3ccc4ncccc4c3)c2n1` [Compound 177], for which the IC50 was in the range of 1 to 100 nM.
`N#Cc1ccc(-c2cnc3nnn(Cc4ccn5nccc5c4)c3n2)cn1` [Compound 302]: the IC50 lay in the range of 1 to 100 nM.
For the compound `Cc1ccc(-c2ccc3nnn(Cc4ccc5ncccc5c4)c3n2)cn1` [Compound 79], the IC50 was in the range of 100 to 1000 nM.
For the compound `c1ccc(Sc2cnc3nnn(Cc4ccc5ncccc5c4)c3n2)nc1` [Compound 252], the IC50 lay within 1 to 100 nM.
Take `N#CCn1cc(-c2ccc3nnn(Cc4ccc5ncccc5c4)c3n2)cn1` [Compound 117]: the IC50 fell in the range of 1 to 100 nM.
For `c1csc(-c2cnc3nnn(Cc4cc5cccnc5s4)c3n2)c1` [Compound 6], the IC50 was in the range of 100 to 1000 nM.
Regarding `COc1ncc(-c2cnc3nnn(C(C)c4ccc5nccn5c4)c3n2)cc1NS(C)(=O)=O` (stereo not shown) [Compound 329], the IC50 lay within 1 to 100 nM.
The value for `OC1COCC1Nc1cc(Nc2cnc3nnn(Cc4ccc5ncccc5c4)c3n2)ccn1` (stereo not shown) [Compound 228] was 1 to 100 nM.

(Values after patent US11896592B2, “Certain triazolopyridines and triazolopyrazines, compositions thereof and methods of use therefor” (Hutchison Medipharma Limited, priority 2009, dated 2024).)
